Among the data in ChEMBL document CHEMBL1201862, “PubChem BioAssay data set” (2004) are IC50, AC50 and EC50 values, retold here.

Experiment [1] addresses T1, Bcl-2-related protein A1 (Mus musculus, UniProt Q07440).
T1 sequence (Q07440 whole entry): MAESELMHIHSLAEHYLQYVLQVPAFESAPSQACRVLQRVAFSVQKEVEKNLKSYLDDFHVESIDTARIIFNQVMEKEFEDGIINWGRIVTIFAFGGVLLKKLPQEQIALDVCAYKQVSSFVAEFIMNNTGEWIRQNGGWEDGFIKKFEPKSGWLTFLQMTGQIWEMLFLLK
The experiment in a line: Bfl-1 inhibitors, primary screen, biochemical, fluorescence polarization, FITC-Bid, mouse (AID 432). In general terms: Fluorescence polarisation rises when a labelled molecule tumbles more slowly, as on binding a larger partner.

Experiment [2] addresses T1, Bcl-2-related protein A1. The experiment in a line: Bfl-1 inhibitors blocking BH3 peptide binding, confirmation, biochemical, TR-FRET, mouse Bfl-1 (AID 621).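 Note: TR-FRET binding of GST-Bfl-1 to FITC-labelled Bid peptide via terbium antibody.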
The target of experiment [3] is Ephrin type-A receptor 4 (Mus musculus, UniProt Q03137). In words: inhibitors of EphA4 binding to KYL peptide, primary screen, biochemical, colorimetric, mouse EphA4 (AID 689). The class given is functional.
The target in experiment [4] is Cytochrome P450 2D6 (Homo sapiens, UniProt P10635).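 Note: CYP2D6 member of a cytochrome P450 panel assay.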
Experiment [5] in a line: Counterscreen for inhibitors of Trypanosoma brucei methionyl tRNA synthetase (MetRS): Luminescence-based cell-based high throughput dose response assay to identify compounds that are cytotoxic to Jurkat human T lymphocyte cells. Type of experiment: functional. In general terms: Counterscreens check selectivity or assay interference.
Experiment [6] in a line: Late stage counterscreen for inhibitors of Trypanosoma brucei methionyl tRNA synthetase (MetRS): Luminescence-based cell-based high throughput dose response assay to identify compounds that are cytotoxic to Jurkat human T lymphocyte cells. The class given is functional.
Experiment [7] deals with T2, Methionyl-tRNA synthetase, putative (Trypanosoma brucei brucei, UniProt Q38C91).
T2 sequence (Q38C91 whole entry): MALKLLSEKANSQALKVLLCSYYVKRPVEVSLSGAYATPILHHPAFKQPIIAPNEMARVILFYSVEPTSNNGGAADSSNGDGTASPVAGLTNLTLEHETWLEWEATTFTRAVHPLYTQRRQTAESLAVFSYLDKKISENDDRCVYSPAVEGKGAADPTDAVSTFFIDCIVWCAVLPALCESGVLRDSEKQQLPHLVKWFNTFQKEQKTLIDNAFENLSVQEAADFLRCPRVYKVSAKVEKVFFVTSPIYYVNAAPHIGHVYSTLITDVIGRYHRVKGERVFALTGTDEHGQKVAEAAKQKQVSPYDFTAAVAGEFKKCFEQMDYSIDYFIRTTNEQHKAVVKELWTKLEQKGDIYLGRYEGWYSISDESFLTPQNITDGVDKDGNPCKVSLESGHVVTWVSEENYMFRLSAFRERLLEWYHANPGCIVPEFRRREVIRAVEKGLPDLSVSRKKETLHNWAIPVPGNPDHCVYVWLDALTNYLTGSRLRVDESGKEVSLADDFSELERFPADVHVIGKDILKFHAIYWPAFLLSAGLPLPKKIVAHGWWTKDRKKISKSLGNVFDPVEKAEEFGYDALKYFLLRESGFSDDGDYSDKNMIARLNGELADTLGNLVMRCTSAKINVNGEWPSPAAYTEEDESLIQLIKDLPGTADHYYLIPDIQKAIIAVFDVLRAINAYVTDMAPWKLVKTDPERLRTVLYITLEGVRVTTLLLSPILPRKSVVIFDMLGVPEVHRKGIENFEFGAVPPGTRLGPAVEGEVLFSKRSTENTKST
Type of experiment: functional, Trypanosoma brucei brucei strain 927/4 GUTat10.1.

Experiment [8] addresses T2, Methionyl-tRNA synthetase, putative. The class given is functional, Trypanosoma brucei brucei strain 927/4 GUTat10.1. This is another data set of the same source.
The target in experiment [9] is E3 ubiquitin-protein ligase Mdm2 (Homo sapiens, UniProt Q00987). The experiment in a line: enhancers of MDM2-luciferase reporter signal, concentration-effect titration, project on inhibitors of MDM2 ubiquitin ligase, cellular assay, luminescent readout, 384-well plate format (AID 1394).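 Note: MDM2 E3 inhibitors raise luminescence so EC50 is for signal enhancement.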 Type of experiment: functional. (Reporter assays use an easily measured gene product as a stand-in for the process of interest.)

A short description of experiment [10]: inhibitors of PGC1a acetylation in cells, dose response, cell-based, cherry-picked samples (AID 720514).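 Note: potency may reflect raised or lowered acetylation signal.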 Type of experiment: functional.
Experiment [11] has as its target T3, Fibrinogen beta chain (Homo sapiens, UniProt P02675). The experiment in a line: Fluorescence polarization-based biochemical high throughput dose response assay to identify inhibitors that disrupt the binding of a cyclic peptide (Tn7) to the fibrin proteolytic product D-Dimer and fragment E complex [DD(E )].
Experiment [12] has as its target Troponin, cardiac muscle (Homo sapiens, UniProt P19429+P45379+P63316). In words: Fluorescence-based biochemical high throughput dose response assay for activators of the calcium sensitivity of cardiac Regulated Thin Filaments (RTF). [Related pubchem assays (depositor defined):AID493008, AID493018, AID504382, AID504383]. Type of experiment: protein-complex assay.

Experiment [13] concerns the target T3, Fibrinogen beta chain. The experiment in a line: Fluorescence polarization-based biochemical high throughput dose response assay to identify inhibitors that disrupt the binding of a cyclic peptide (Tn6) to the fibrin proteolytic product D-Dimer and fragment E complex [DD(E )].
Experiment [14] deals with Beta-galactosidase (Escherichia coli, UniProt Q8VNN2). In words: Dose response counterscreen for EBI2 assay utilizing the enzyme, b-galactosidase. Type of experiment: functional.
The target in experiment [15] is T4, G-protein coupled receptor 183 (Homo sapiens, UniProt P32249). The experiment in a line: Dose-response confirmation of small molecule antagonists of the EBI2 receptor via a luminescent beta-arrestin assay. The class given is functional.
Experiment [16] deals with T4, G-protein coupled receptor 183. The experiment in a line: SAR confirmation of small molecule antagonists of the EBI2 receptor via a luminescent beta-arrestin assa. Type of experiment: functional.
Experiment [17] is described as follows: A Cell-Based Confirmatory Screen for Compounds that Inhibit VEEV, TC-83 (5). Type of experiment: functional.
Experiment [18] can be described thus: A Cell-Based Confirmatory Screen for Compounds that Inhibit VEEV, TC-83 (8). The class given is functional.

The source made the active and inactive calls. Some results are limits rather than exact numbers.

One may read the IC50 as the concentration that inhibits the measured activity by half. A word on the AC50: it is the concentration giving half of the maximal activity seen. As usually defined, the EC50 is the concentration that produces a half-maximal response.

T3 sequence (P02675 whole entry, the tested form may be a part): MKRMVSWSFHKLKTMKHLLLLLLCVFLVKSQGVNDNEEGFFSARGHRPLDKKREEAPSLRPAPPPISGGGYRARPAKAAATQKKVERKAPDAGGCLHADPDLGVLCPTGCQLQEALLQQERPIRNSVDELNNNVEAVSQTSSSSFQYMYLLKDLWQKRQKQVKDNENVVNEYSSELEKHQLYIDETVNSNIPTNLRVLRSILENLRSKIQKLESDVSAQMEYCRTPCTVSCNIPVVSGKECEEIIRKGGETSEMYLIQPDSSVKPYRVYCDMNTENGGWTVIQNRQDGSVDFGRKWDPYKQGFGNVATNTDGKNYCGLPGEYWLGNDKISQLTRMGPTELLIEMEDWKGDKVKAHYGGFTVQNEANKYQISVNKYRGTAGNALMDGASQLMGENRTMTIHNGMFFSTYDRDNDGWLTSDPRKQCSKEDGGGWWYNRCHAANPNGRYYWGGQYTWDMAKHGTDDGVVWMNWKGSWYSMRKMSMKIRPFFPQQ
T4 sequence (P32249 whole entry): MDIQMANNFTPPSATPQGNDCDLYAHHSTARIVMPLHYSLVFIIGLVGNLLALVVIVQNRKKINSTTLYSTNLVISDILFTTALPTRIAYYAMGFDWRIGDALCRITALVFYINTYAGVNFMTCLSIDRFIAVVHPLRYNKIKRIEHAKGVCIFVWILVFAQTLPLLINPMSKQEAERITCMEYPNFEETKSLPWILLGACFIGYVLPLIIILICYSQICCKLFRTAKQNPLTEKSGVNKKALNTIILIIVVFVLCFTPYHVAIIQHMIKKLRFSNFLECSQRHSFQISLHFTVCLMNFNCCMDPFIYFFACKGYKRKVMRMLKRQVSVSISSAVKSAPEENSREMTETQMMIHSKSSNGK
Chain of Cytochrome P450 2D6 (P10635 whole entry): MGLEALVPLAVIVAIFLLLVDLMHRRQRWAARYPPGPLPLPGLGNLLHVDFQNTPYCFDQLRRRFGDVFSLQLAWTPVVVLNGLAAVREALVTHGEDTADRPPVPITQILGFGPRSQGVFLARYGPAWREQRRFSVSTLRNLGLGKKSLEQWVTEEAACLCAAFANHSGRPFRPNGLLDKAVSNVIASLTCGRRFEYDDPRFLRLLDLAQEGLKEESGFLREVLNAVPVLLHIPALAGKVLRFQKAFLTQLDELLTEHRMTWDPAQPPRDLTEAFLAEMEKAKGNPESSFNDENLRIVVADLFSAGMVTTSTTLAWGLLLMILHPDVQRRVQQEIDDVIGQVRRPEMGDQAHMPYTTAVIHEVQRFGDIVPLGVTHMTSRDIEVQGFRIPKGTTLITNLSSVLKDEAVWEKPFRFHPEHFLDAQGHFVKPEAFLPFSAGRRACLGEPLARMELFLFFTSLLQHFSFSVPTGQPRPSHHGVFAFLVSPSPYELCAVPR
Chain of E3 ubiquitin-protein ligase Mdm2 (Q00987 whole entry): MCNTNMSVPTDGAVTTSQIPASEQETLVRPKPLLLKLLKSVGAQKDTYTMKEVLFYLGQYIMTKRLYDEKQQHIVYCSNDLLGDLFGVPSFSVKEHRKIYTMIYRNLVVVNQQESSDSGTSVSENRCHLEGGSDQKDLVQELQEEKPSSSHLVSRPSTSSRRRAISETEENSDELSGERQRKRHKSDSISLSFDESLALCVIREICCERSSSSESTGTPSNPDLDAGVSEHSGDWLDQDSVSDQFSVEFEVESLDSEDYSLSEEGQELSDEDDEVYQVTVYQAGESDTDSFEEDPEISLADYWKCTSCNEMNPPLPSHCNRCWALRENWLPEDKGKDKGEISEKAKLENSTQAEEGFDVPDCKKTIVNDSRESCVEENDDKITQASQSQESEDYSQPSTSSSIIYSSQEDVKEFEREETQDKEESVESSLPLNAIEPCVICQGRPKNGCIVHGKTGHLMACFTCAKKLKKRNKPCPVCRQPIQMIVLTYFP
Chain of Ephrin type-A receptor 4 (Q03137 whole entry): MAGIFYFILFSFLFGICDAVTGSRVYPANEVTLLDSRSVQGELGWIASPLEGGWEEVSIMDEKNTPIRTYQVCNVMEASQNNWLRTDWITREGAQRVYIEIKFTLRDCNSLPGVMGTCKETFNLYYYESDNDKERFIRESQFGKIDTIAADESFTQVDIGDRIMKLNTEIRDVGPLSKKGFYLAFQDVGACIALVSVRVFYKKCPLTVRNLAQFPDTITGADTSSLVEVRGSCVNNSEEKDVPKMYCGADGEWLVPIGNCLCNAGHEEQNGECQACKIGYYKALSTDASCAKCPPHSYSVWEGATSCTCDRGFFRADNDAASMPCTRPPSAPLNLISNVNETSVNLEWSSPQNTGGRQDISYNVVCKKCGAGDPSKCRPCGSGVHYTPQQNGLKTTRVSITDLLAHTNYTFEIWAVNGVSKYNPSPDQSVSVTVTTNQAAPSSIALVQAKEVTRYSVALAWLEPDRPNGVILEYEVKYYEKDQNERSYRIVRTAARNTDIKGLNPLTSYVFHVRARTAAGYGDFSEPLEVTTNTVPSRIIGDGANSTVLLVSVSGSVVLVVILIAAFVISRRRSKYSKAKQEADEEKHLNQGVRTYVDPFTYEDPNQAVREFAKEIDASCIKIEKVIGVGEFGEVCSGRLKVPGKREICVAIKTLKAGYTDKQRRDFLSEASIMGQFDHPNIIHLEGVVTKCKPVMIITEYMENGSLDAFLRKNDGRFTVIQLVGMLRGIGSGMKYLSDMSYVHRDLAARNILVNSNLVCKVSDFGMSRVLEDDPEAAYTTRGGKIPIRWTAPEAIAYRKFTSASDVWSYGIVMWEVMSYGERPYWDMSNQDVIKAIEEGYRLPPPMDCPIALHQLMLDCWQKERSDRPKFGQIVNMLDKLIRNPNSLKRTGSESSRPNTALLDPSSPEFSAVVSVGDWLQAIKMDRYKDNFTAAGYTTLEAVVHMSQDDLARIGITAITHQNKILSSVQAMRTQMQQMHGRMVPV
Chain of Beta-galactosidase (Q8VNN2 whole entry): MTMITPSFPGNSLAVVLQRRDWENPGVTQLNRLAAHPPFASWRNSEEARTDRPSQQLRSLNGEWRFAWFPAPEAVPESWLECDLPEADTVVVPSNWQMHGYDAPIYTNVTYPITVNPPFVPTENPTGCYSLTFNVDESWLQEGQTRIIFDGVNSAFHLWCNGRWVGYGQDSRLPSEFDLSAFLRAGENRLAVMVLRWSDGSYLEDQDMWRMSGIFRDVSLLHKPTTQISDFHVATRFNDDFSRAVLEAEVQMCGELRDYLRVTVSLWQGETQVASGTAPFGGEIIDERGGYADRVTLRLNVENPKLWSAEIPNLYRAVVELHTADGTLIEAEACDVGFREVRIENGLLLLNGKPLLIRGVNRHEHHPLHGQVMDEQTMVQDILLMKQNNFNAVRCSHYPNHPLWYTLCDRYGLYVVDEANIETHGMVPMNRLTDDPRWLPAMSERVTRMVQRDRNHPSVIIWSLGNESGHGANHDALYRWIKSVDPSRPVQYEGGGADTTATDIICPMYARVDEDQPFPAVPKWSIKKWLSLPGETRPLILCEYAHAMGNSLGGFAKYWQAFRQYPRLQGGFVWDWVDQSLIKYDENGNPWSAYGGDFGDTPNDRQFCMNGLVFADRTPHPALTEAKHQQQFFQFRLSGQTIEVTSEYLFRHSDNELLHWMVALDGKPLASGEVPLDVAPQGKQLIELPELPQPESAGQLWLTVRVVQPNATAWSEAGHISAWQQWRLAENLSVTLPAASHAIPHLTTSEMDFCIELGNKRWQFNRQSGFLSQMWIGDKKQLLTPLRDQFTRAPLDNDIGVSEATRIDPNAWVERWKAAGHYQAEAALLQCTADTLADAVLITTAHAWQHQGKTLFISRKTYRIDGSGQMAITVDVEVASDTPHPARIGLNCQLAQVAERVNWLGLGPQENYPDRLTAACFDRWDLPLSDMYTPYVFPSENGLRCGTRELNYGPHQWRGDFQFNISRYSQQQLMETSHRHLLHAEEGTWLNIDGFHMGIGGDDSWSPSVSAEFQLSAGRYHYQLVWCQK

Take `CCSc1nnc(NC(=O)C(C(F)(F)F)C(F)(F)F)s1`: the results for the IC50 in [1], in experiment [2] and in [3] were 2.85 µM (active), 2.66 µM (active) and 4.1 µM (active), respectively. Moreover, in experiment [4], the AC50 is 25.1 µM (inconclusive).
As to `O=C(NCc1nc2ccccc2[nH]1)C1=C[C@@H](c2ccc(Br)cc2)C[C@@H](OCCCCO)O1`, the IC50 in [5] is 83.3 µM (inactive); in experiment [6] it was 48.4 µM (inactive); in [7] it was 0.27 µM (active); in experiment [8] it was 0.551 µM (active).
As for `CSc1nsc(/C=C/Nc2ccc(F)cc2)c1C#N`, the EC50 in experiment [9] is given as 2.4 µM (not active).
Turning to `CC(=O)Nc1ccc2c(CSc3nncs3)cc(=O)oc2c1`, the AC50 in experiment [10] is 26.5 µM (active).
As for `[O-][n+]1c2c([n+]([O-])c3cc(N4CCCC4)c(F)cc31)CCC2`, the values for the IC50 in experiment [11] and in experiment [13] were > 83.3 µM (inactive) and 26.1 µM (inactive), respectively. In addition, the EC50 in experiment [12] was > 2.65 µM (active).
`O=C(/C=C/c1ccc(F)cc1)N1CCN(S(=O)(=O)/C=C/c2ccccc2)CC1`: the IC50 in experiment [14] is > 80 µM (inactive); in experiment [15], 0.00675 µM (active); in [16], 0.00359 µM (active).
With `O=c1c2cc([N+](=O)[O-])ccc2nc(CN2CCNCC2)n1-c1ccccc1`, the results for the IC50 in experiment [17] and in experiment [18] were 0.15 µM (active) and < 0.168 µM (active), respectively.
